Source: patent US7442702B2, “Prostaglandin agonists” (priority 1997, dated 2008)

Legend:
[1] = test system: expression of Bone Morphogenetic Protein 7 (BMP-7) in 293S cells transfected with EP2; experiment: Kidney regeneration assay: BMP-7 expression (Northern blot) in 293S cells transfected with EP2; type: cell-based, human; details: EP2 293S cells, 10^−6M, RNA extracted at 8, 16 and 24 hours
Protocol: (§1) Methods: 293S and EP293S cells are grown in Dulbecco's Modified Egale medium (DMEM, Gibco, BRL; Gaithersburg, Md.). […] Cells are harvested and RNA is extracted at 8, 16 and 24 hours. Northern blot analysis of total RNA ([…]) is carried out by probing the blots with ^32P-labeled BMP-7 probe. The blots are normalized for RNA loading by hybridization with ^32P-labeled 18s ribosomal RNA probe. […] Given the known role of BMP-7 in kidney regeneration and the ability of an prostaglandin agonist to induce BMP-7 expression in 293S kidney cells in a time and receptor specific manner indicates a role for prostaglandin agonist in kidney regeneration.

[2] = test system: expression of Bone Morphogenetic Protein 7 (BMP-7) in wild type 293S cells; experiment: Kidney regeneration assay: BMP-7 expression (Northern blot) in wild type 293S cells; type: cell-based, human; details: parental 293S cell line, 10^−6M, RNA extracted at 8, 16 and 24 hours
Protocol: as §1

CCCCC[C@H](O)/C=C/[C@H]1[C@H](O)CC(=O)[C@@H]1C/C=C\CCCC(=O)O [PGE2, Prostaglandin E2]
induction of expression of BMP-7 [1]: induce the expression of BMP-7 in the EP2 293S cells in a time dependent manner | induction of expression of BMP-7 [2]: generally not observed
